# In patent US20230143345A1, “PHARMACEUTICAL COMPOSITION FOR PREVENTION OR TREATMENT OF DISEASES CAUSED BY SARS-COV-2” (DONG WHA PHARM. CO., LTD., priority 2020, published 2023):
# Like-named read-outs stand apart in the source and are kept apart here.
# Legend:
# SARS-CoV-2 [1] = test: microbe, parasite or virus in culture; assay type: cell-based
# Vero cell lines = test: Cell viability of Vero cells in the SARS-CoV-2 inhibition experiment (Example 2)
# SARS-CoV-2 [2] = test: microbe, parasite or virus in culture; assay type: cell-based; settings: Severe acute respiratory syndrome coronavirus 2, Vero, read-out: SARS-CoV-2 virus 50% inhibitory ability (IC50 value)
# in vitro = settings: African green monkey
smiles,measurement,setting,value
"COc1cc2cc3c(c(-c4cc5c(cc4O)OCO5)c2cc1OC)C(=O)OC3 [6′ hydroxyl justicidin-B, 9-(6-hydroxy-benzo[1,3]dioxol-5-yl)-6,7-dimethoxy-3H-naphtho[2,3-c]furan-1-one]",IC50,"SARS-CoV-2 [1]; Severe acute respiratory syndrome coronavirus 2, Vero, 24 h, read-out: SARS-CoV-2 virus 50% inhibitory ability (IC50 value)",1.06 µM
same,inhibition at 0.1 µM,"SARS-CoV-2 [1]; Severe acute respiratory syndrome coronavirus 2, concentration 0.10 uM, Vero cells, 24 h, read-out: SARS-CoV-2 virus inhibitory ability (%, average ± standard deviation)",1.45 ± 1.16%
same,inhibition at 0.2 µM,"SARS-CoV-2 [1]; Severe acute respiratory syndrome coronavirus 2, concentration 0.20 uM, Vero cells, 24 h, read-out: SARS-CoV-2 virus inhibitory ability (%, average ± standard deviation)",-1.71 ± 4.34%
same,inhibition at 0.39 µM,"SARS-CoV-2 [1]; Severe acute respiratory syndrome coronavirus 2, concentration 0.39 uM, Vero cells, 24 h, read-out: SARS-CoV-2 virus inhibitory ability (%, average ± standard deviation)",3.39 ± 3.95%
same,inhibition at […],"SARS-CoV-2 [1]; Severe acute respiratory syndrome coronavirus 2, concentration 0.78 uM, Vero cells, 24 h, read-out: SARS-CoV-2 virus inhibitory ability (%, average ± standard deviation)",35.6 ± 0.69%
same,inhibition at 1.56 µM,"SARS-CoV-2 [1]; Severe acute respiratory syndrome coronavirus 2, concentration 1.56 uM, Vero cells, 24 h, read-out: SARS-CoV-2 virus inhibitory ability (%, average ± standard deviation)",68.6 ± 3.12%
same,inhibition at 3.13 µM,"SARS-CoV-2 [1]; Severe acute respiratory syndrome coronavirus 2, concentration 3.13 uM, Vero cells, 24 h, read-out: SARS-CoV-2 virus inhibitory ability (%, average ± standard deviation)",95.86 ± 0.86%
same,inhibition at 6.25 µM,"SARS-CoV-2 [1]; Severe acute respiratory syndrome coronavirus 2, concentration 6.25 uM, Vero cells, 24 h, read-out: SARS-CoV-2 virus inhibitory ability (%, average ± standard deviation)",99.74 ± 0.24%
same,inhibition at 12.5 µM,"SARS-CoV-2 [1]; Severe acute respiratory syndrome coronavirus 2, concentration 12.5 uM, Vero cells, 24 h, read-out: SARS-CoV-2 virus inhibitory ability (%, average ± standard deviation)",98.9 ± 1.49%
same,inhibition at 25 µM,"SARS-CoV-2 [1]; Severe acute respiratory syndrome coronavirus 2, concentration 25 uM, Vero cells, 24 h, read-out: SARS-CoV-2 virus inhibitory ability (%, average ± standard deviation)",99.79 ± 0.6%
same,inhibition at 50 µM,"SARS-CoV-2 [1]; Severe acute respiratory syndrome coronavirus 2, concentration 50 uM, Vero cells, 24 h, read-out: SARS-CoV-2 virus inhibitory ability (%, average ± standard deviation)",97.8 ± 2.47%
same,SARS-CoV-2 inhibitory ability (in words),"SARS-CoV-2 [1]; Vero cells, comparison at IC50 values with Remdesivir, Lopinavir and Chloroquine",remarkably more excellent
same,"Cell viability (%, average ± standard deviation)",Vero cell lines; concentration 0.10 uM,100.66 ± 0.73%
same,"Cell viability (%, average ± standard deviation)",Vero cell lines; concentration 0.20 uM,104.63 ± 0.44%
same,"Cell viability (%, average ± standard deviation)",Vero cell lines; concentration 0.39 uM,105.17 ± 0.85%
same,"Cell viability (%, average ± standard deviation)",Vero cell lines; concentration 1.56 uM,107.86 ± 0.60%
same,"Cell viability (%, average ± standard deviation)",Vero cell lines; concentration 3.13 uM,105.46 ± 0.38%
same,"Cell viability (%, average ± standard deviation)",Vero cell lines; concentration 6.25 uM,103.44 ± 1.31%
same,"Cell viability (%, average ± standard deviation)",Vero cell lines; concentration 12.5 uM,101.11 ± 0.36%
same,"Cell viability (%, average ± standard deviation)",Vero cell lines; concentration 25 uM,97.80 ± 1.29%
same,"Cell viability (%, average ± standard deviation)",Vero cell lines; concentration 50 uM,93.38 ± 0.72%
same,IC50,SARS-CoV-2 [2],0.05 µM
same,CC50,in vitro,314 µM
